Results published in patent US20030225272A1, “Novel mmp-2/mmp-9 inhibitors” (priority 2003, published 2003).

Legend:
[1] = biological target: T1, purified recombinant human MMP-9 (Homo sapiens, UniProt P14780); assay: MMP-9 quenched fluorescence screening assay; assay type: biochemical; conditions: 96-well quenched fluorescence assay, fluorogenic peptide substrate, 30 minutes at 37 C
T1 construct: made in house
Method: (§1) A high-throughput, 96-well screen was used to measure MMP-9 activity and to detect potential inhibitors of MMP-9. The screen is a quenched fluorescence assay. The components of the assay include purified recombinant human MMP-9 (generated by. SB, 3 nM final concentration) and a fluorogenic peptide substrate (Peptides International, Louisville, Ky., 10 (M final concentration) incubated in the presence or absence of compound. Briefly, enzyme activity is measured after 30 minutes incubation at 37(C. and quantitated using a peptide substrate, (Dnp-Pro-Cha-Gly-Cys(Me)-His-Ala-Lys(NMa)-NH2 or (2,4-Dinitrophenyl-L-Prolyl-L-Cyclohexylalanyl-Glycyl(-Methyl-L-Cysteinyl-L-Histidyl-L-Alanyl-N(-Methylenthranoyl-L-Lysine Amide) containing a fluorophore, Nma, on one end of the peptide and a quencher, Dnp, on the other end. When the peptide is intact, the fluorophore is quenched. When the peptide is cleaved by MMP-9, the quencher is dissociated from the fluorophore and a fluorescent signal is emitted that can easily be detected using a fluorescent plate reader. The universal cleavage site within the peptide that is recognized by MMP-1, -2, -3, -9 and -13 is the Gly-Cys bond.
(§2) A 96-well quenched fluorescence assay was used to measure MMP-9 and MMP-2 activity and to detect potential inhibitors of MMP-9 and MMP-2. […] For these additional screens, an IC50 value was determined. […]

[2] = biological target: T2, purified recombinant human MMP-2 (Homo sapiens, UniProt P08253); assay: MMP-2 quenched fluorescence screening assay; assay type: biochemical; conditions: 96-well quenched fluorescence assay, same fluorogenic peptide substrate
T2 construct: made in house
T2 sequence (P08253 110-660): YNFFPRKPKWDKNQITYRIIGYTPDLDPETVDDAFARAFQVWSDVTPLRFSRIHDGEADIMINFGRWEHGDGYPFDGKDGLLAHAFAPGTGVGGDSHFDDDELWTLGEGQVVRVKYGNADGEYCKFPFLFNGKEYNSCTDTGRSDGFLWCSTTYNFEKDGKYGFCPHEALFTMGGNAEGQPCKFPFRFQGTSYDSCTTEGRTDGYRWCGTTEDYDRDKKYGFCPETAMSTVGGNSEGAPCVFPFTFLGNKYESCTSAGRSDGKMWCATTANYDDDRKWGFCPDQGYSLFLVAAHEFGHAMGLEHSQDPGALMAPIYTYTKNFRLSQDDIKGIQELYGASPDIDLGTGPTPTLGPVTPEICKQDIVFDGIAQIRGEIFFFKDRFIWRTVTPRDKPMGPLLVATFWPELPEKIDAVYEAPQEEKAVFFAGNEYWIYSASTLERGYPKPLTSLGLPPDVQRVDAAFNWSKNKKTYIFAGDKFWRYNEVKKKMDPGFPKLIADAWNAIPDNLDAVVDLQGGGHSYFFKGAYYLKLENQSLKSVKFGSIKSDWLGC
Method: as §1, §2

T1 sequence (P14780 94-707): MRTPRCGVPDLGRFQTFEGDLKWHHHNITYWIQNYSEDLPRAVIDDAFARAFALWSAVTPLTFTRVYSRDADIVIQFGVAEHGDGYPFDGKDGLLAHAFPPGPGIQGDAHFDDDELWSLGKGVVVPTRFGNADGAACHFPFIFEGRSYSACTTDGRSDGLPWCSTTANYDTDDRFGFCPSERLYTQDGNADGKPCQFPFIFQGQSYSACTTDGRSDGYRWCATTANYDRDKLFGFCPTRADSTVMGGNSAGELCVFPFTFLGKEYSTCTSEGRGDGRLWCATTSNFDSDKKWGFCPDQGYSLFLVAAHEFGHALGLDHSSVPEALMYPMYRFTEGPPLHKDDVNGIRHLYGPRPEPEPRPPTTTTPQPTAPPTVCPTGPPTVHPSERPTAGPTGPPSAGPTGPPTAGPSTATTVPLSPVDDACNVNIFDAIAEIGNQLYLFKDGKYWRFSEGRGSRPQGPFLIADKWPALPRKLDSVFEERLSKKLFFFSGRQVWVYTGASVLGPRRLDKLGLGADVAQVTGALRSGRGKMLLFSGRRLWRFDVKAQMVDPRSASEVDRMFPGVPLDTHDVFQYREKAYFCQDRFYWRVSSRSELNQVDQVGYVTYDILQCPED

Structure (SMILES): CCCCCCCCC[C@H](CC(=O)O)C(=O)N[C@@H](C(=O)NC)c1ccccc1 [Example 1, N-[2(R)-Nonylsuccinic acid]-L-phenylglycine-N-methylamide]
- MMP-9 inhibition (screening result in words) [1]: identified as a dual MMP-2/MMP-9 inhibitor
- MMP-2 inhibition (screening result in words) [2]: identified as a dual MMP-2/MMP-9 inhibitor
